In US20130030017A1, “QUINOLINE DERIVATIVES AS ANTIBACTERIAL AGENTS” (priority 2005, published 2013):
In brackets after ≈: the same amount, converted by molar mass.

Assays:
Type in all cases: cell-based
[1] = test system: Streptococcus pneumoniae (ATCC6305); assay: Microtitre plate assay, IC90 determination (SPN 6305); conditions: 90% inhibitory concentration for bacterial growth, 37° C., resazurin fluorescence; for IC90 SPN 6305: 24 hours; for IC90: Streptococcus pneumoniae, ATCC6305, 24 h
Description: (§1) The bacteria used in this study were grown overnight in flasks containing 100 ml Mueller-Hinton Broth (Becton Dickinson—cat. no. 275730) in sterile de-ionized water, with shaking, at 37° C. Stocks (0.5 ml/tube) were stored at −70° C. until use. Bacteria titrations were performed in microtiter plates and colony forming units (CFUs) were determined. In general, an inoculum level of approximately 100 CFUs was used for susceptibility testing.
(§2) Flat-bottom, sterile 96-well plastic microtiter plates were filled with 180 μl of sterile deionized water, supplemented with 0.25% BSA. Subsequently, stock solutions (7.8× final test concentration) of compounds were added in 45 μl volumes in column 2 Serial five-fold dilutions (45 μl in 180 μl) were made directly in the microtiter plates from column 2 to reach column 11. Untreated control samples with (column 1) and without (column 12) inoculum were included in each microtiter plate. Depending on the bacteria type, approximately 10 to 60 CFU per well of bacteria inoculum (100 TCID50), in a volume of 100 μl in 2.8× Mueller-Hinton broth medium, was added to the rows A to H, except column 12. The same volume of broth medium without inoculum was added to column 12 in row A to H. The cultures were incubated at 37° C. for 24 hours under a normal atmosphere (incubator with open air valve and continuous ventilation). At the end of incubation, one day after inoculation, the bacterial growth was quantitated fluorometrically. Therefore resazurin (0.6 mg/ml) was added in a volume of 20 μl to all wells 3 hours after inoculation, and the plates were re-incubated overnight. A change in colour from blue to pink indicated the growth of bacteria. The fluorescence was read in a computer-controlled fluorometer (Cytofluor Biosearch) at an excitation wavelength of 530 nm and an emission wavelength of 590 nm. The % growth inhibition achieved by the compounds was calculated according to standard methods. The IC90 (expressed in μg/ml) was defined as the 90% inhibitory concentration for bacterial growth.

[2] = test system: Staphylococcus aureus (ATCC29213); assay: Microtitre plate assay, IC90 determination (STA 29213); conditions: 90% inhibitory concentration for bacterial growth, 37° C., resazurin fluorescence; for IC90 STA 29213: 24 hours; for IC90: Staphylococcus aureus, ATCC29213, 24 h
Description: as §1, §2

[3] = test system: Pseudomonas aeruginosa (ATCC27853); assay: Microtitre plate assay, IC90 determination (PAE 27853); conditions: 90% inhibitory concentration for bacterial growth, 37° C., resazurin fluorescence; for IC90: Pseudomonas aeruginosa, ATCC27853, 24 h; for IC90 PAE 27853: 24 hours
Description: as §1, §2

[4] = test system: Enterococcus faecalis (ATCC29212); assay: Microtitre plate assay, IC90 determination (EFA 29212); conditions: 90% inhibitory concentration for bacterial growth, 37° C., resazurin fluorescence; for IC90 EFA 29212: 24 hours; for IC90: Enterococcus faecalis, ATCC29212, 24 h
Description: as §1, §2

[5] = test system: Streptococcus pyogens (ATCC8668); assay: Microtitre plate assay, IC90 determination (SPY 8668); conditions: 90% inhibitory concentration for bacterial growth, 37° C., resazurin fluorescence; for IC90: Streptococcus, ATCC8668, 24 h; for IC90 SPY 8668: 24 hours
Description: as §1, §2

SMILES	IC90 SPN 6305 [1] [µg/mL]	IC90 STA 29213 [2] [µg/mL]	further results
COc1nc2ccc(Br)cc2cc1C(c1ccccc1)C(O)(CCc1ccc(F)cc1)CCN(C)C (stereo not shown) [Compound 25]	1.7 (≈ 3.08 µM)	7.8 (≈ 14.1 µM)	
COc1nc2ccc(Br)cc2cc1C(c1ccc(Cl)cc1)C(O)(CCc1cccc(F)c1)CCN(C)C (stereo not shown) [Compound 77]		1.9 (≈ 3.24 µM)	IC90 [1]: 0.8 µg/mL (≈ 1.37 µM); IC90 [3]: 1.9 µg/mL (≈ 3.24 µM); IC90 EFA 29212 [4]: 3.7 µg/mL (≈ 6.31 µM); IC90 [5]: 1.9 µg/mL (≈ 3.24 µM)
COc1nc2ccc(Br)cc2cc1C(c1cccc(C)c1)C(O)(CCc1ccccc1)CCN(C)C (stereo not shown) [Compound 71]			IC90 [1]: 1.7 µg/mL (≈ 3.1 µM); IC90 [3]: 54.8 µg/mL (≈ 100 µM); IC90 [2]: 2.2 µg/mL (≈ 4.02 µM); IC90 [4]: 54.8 µg/mL (≈ 100 µM); IC90 [5]: 43.5 µg/mL (≈ 79.4 µM)
COc1nc2ccc(Br)cc2cc1C(c1ccccc1)C(O)(CCc1ccc(C)cc1)CCN(C)C (racemic) [Compound 52]	1.4 (≈ 2.56 µM)	6.9 (≈ 12.6 µM)	IC90 PAE 27853 [3]: 1.7 µg/mL (≈ 3.1 µM); IC90 EFA 29212 [4]: 1.7 µg/mL (≈ 3.1 µM); IC90 SPY 8668 [5]: 1.7 µg/mL (≈ 3.1 µM)
COc1ccc(C(c2cc3cc(Br)ccc3nc2OC)C(O)(CCc2ccc(F)cc2)CCN(C)C)cc1 (stereo not shown) [Compound 84]			IC90 [1]: 2.1 µg/mL (≈ 3.61 µM); IC90 [3]: 46.2 µg/mL (≈ 79.4 µM); IC90 [2]: 4.6 µg/mL (≈ 7.91 µM); IC90 [4]: 58.2 µg/mL (≈ 100 µM); IC90 [5]: 46.2 µg/mL (≈ 79.4 µM)
COc1nc2ccc(Br)cc2cc1C(c1cccc(Cl)c1)C(O)(CCc1ccc(F)cc1)CCN(C)C (stereo not shown) [Compound 81]	0.6 (≈ 1.02 µM)	1.9 (≈ 3.24 µM)	IC90 [3]: 1.9 µg/mL (≈ 3.24 µM); IC90 [4]: 9.3 µg/mL (≈ 15.9 µM); IC90 [5]: 1.9 µg/mL (≈ 3.24 µM)
COc1nc2ccc(Br)cc2cc1C(c1cccc(C)c1)C(O)(CCc1ccccc1)CCN(C)C (stereo not shown) [Compound 72]	2.2 (≈ 4.02 µM)	1.7 (≈ 3.1 µM)	IC90 PAE 27853 [3]: 43.5 µg/mL (≈ 79.4 µM); IC90 EFA 29212 [4]: 43.5 µg/mL (≈ 79.4 µM); IC90 SPY 8668 [5]: 43.5 µg/mL (≈ 79.4 µM)
COc1nc2ccc(Br)cc2cc1C(c1ccccc1)C(O)(CCc1ccccc1)CCN(C)C (stereo not shown) [Compound 17]	4.8 (≈ 9 µM)	8.5 (≈ 15.9 µM)	
COc1nc2ccccc2cc1C(c1ccccc1)C(O)(CCc1ccccc1)CCN(C)C (racemic) [Compound 13]	4.1 (≈ 9.02 µM)	36.1 (≈ 79.4 µM)	
COc1nc2ccc(-c3ccccc3)cc2cc1C(c1ccccc1)C(O)(CCc1ccccc1)CCN(C)C (racemic) [Compound 59]	10.6 (≈ 20 µM)	42.2 (≈ 79.5 µM)	
COc1ccc(C(c2cc3cc(Br)ccc3nc2OC)C(O)(CCc2ccc(F)cc2)CCN(C)C)cc1 (stereo not shown) [Compound 85]	2.1 (≈ 3.61 µM)	4.1 (≈ 7.05 µM)	
COc1ccc2nc(OC)c(C(c3ccccc3)C(O)(CCc3ccccc3)CCN(C)C)cc2c1 (stereo not shown) [Compound 3]	3.4 (≈ 7.02 µM)		IC90 [3]: 9.7 µg/mL (≈ 20 µM); IC90 [2]: 12.2 µg/mL (≈ 25.2 µM); IC90 [4]: 9.7 µg/mL (≈ 20 µM); IC90 [5]: 9.7 µg/mL (≈ 20 µM)
COc1nc2ccc(Br)cc2cc1C(c1ccccc1)C(O)(CCc1ccc(Cl)cc1)CCN(C)C (racemic) [Compound 56]	5.7 (≈ 10 µM)	9.0 (≈ 15.8 µM)	
COc1nc2ccc(Br)cc2cc1C(c1ccccc1)C(O)(CCc1ccc(C(C)C)cc1)CCN(C)C (stereo not shown) [Compound 24]		2.6 (≈ 4.52 µM)	IC90 [1]: 0.3 µg/mL (≈ 0.521 µM)
COc1nc2ccc(-c3ccco3)cc2cc1C(c1ccccc1)C(O)(CCc1ccccc1)CCN(C)C (racemic) [Compound 62]	10.4 (≈ 20 µM)	8.3 (≈ 15.9 µM)	
COc1nc2ccc(CO)cc2cc1C(c1ccccc1)C(O)(CCc1ccccc1)CCN(C)C (stereo not shown) [Compound 58]			IC90 [1]: 8.6 µg/mL (≈ 17.7 µM); IC90 [2]: 8.6 µg/mL (≈ 17.7 µM)
COc1nc2ccc(Br)cc2cc1C(c1ccccc1)C(O)(CCc1ccc(F)cc1)CCN(C)C (stereo not shown) [Compound 27]	2.0 (≈ 3.63 µM)	1.7 (≈ 3.08 µM)	

SMILES	IC90 SPN 6305 [1] [µg/mL]	IC90 STA 29213 [2] [µg/mL]	further results
COc1nc2ccc(Br)cc2cc1C(c1ccc(Cl)cc1)C(O)(CCc1ccc(Cl)cc1)CCN(C)C (stereo not shown) [Compound 75]	3.4 (≈ 5.64 µM)	3.0 (≈ 4.98 µM)	
COc1nc2ccc(Br)cc2cc1C(c1ccc(Cl)cc1)C(O)(CCc1cccc(OC(F)(F)F)c1)CCN(C)C (stereo not shown) [Compound 90]	2.6 (≈ 3.99 µM)	16.4 (≈ 25.2 µM)	
COc1nc2ccc(Br)cc2cc1C(c1ccccc1)C(O)(CCc1ccc(Cl)cc1)CCN(C)C (racemic) [Compound 55]	0.3 (≈ 0.528 µM)	1.8 (≈ 3.17 µM)	
COc1nc2ccc(-c3cccs3)cc2cc1C(c1ccccc1)C(O)(CCc1ccccc1)CCN(C)C (racemic) [Compound 64]	10.7 (≈ 19.9 µM)	42.6 (≈ 79.4 µM)	
COc1nc2ccc(Br)cc2cc1C(c1ccc(Cl)cc1)C(O)(CCc1cccc(OC(F)(F)F)c1)CCN(C)C (stereo not shown) [Compound 91]	0.3 (≈ 0.46 µM)		IC90 [2]: 32.7 µg/mL (≈ 50.2 µM)
COc1nc2ccc(Br)cc2cc1C(c1ccc(Cl)cc1)C(O)(CCc1ccc(Cl)cc1)CCN(C)C (stereo not shown) [Compound 76]	0.4 (≈ 0.664 µM)		IC90 [2]: 2.1 µg/mL (≈ 3.49 µM)
COc1nc2ccc(Br)cc2cc1C(c1ccc(Cl)cc1)C(O)(CCc1ccc(C)cc1)CCN(C)C (stereo not shown) [Compound 86]		41.2 (≈ 70.8 µM)	IC90 [1]: 2.1 µg/mL (≈ 3.61 µM)
COc1nc2ccc(Br)cc2cc1C(c1ccccc1)C(O)(CCc1cccc(F)c1)CCN(C)C (racemic) [Compound 47]	8.7 (≈ 15.8 µM)	43.8 (≈ 79.4 µM)	
COc1nc2ccc(Br)cc2cc1C(c1ccccc1)C(O)(CCc1ccc(C(C)C)cc1)CCN(C)C (stereo not shown) [Compound 23]	0.3 (≈ 0.521 µM)	16.2 (≈ 28.1 µM)	
COc1nc2ccc(Br)cc2cc1C(c1ccc(Cl)cc1)C(O)(CCc1ccc(C(F)(F)F)cc1)CCN(C)C (stereo not shown) [Compound 89]			IC90 [1]: 2.3 µg/mL (≈ 3.62 µM); IC90 [2]: 22.6 µg/mL (≈ 35.5 µM)
CNCCC(O)(CCc1ccc(F)cc1)C(c1ccccc1)c1cc2ccccc2nc1OC (stereo not shown) [Compound 38]	0.3 (≈ 0.654 µM)	1.5 (≈ 3.27 µM)	
CSc1nc2ccc(C)cc2cc1C(c1ccccc1)C(O)(CCc1ccccc1)CCN(C)C (stereo not shown) [Compound 30]	1.9 (≈ 3.92 µM)	7.7 (≈ 15.9 µM)	
COc1nc2ccc(Br)cc2cc1C(c1ccccc1)C(O)(CCc1ccc(Cl)c(Cl)c1)CCN(C)C (racemic) [Compound 57]	0.5 (≈ 0.83 µM)	6.0 (≈ 9.96 µM)	
COc1nc2ccc(-c3ccccc3)cc2cc1C(c1ccccc1)C(O)(CCc1ccccc1)CCN(C)C (racemic) [Compound 60]	10.6 (≈ 20 µM)	53.1 (≈ 100 µM)	
COc1nc2ccc(-c3cccnc3)cc2cc1C(c1ccccc1)C(O)(CCc1ccccc1)CCN(C)C (racemic) [Compound 61]	7.5 (≈ 14.1 µM)		
COc1ccc2nc(OC)c(C(c3ccccc3)C(O)(CCc3ccccc3)CCN(C)C)cc2c1 (stereo not shown) [Compound 4]	9.7 (≈ 20 µM)	10.9 (≈ 22.5 µM)	
CNCCC(O)(CCc1ccc(F)cc1)C(c1ccccc1)c1cc2cc(Br)ccc2nc1OC (stereo not shown) [Compound 40]	0.3 (≈ 0.558 µM)	1.5 (≈ 2.79 µM)	
